Organism: Rattus norvegicus
Experiment: Open TG-GATES - Regimen: Single
Assay type: toxicity, organism-based, Sprague-Dawley
Parameters: regimen Single, gender Male, age 6 weeks
Details: in vivo, po, 300 mg/kg, route gavage, dose level Middle; for APTT / Bas / Eos / Fbg / Hb / Ht / Lym / MCH / MCHC / MCV / Mono / Neu / PT / Plat / RBC / Ret / WBC: tissue Blood; for KIDNEY_L / KIDNEY_R / KIDNEY_TOTAL: tissue Kidney; for LIVER: tissue Liver; for A/G / ALP / ALT / AST / BUN / CRE / Ca / Cl / DBIL / GLC / IP / K / LDH / Na / PL / RALB / TBIL / TC / TG / TP / gamma-GTP: tissue Plasma

For CC(=O)Nc1ccc2c(c1)Cc1ccccc1-2 [2-ACETYLAMINOFLUORENE], the TERMINAL_BW (3 h) was 222.8 g, the APTT (3 h) was 19.8 s and the Bas (3 h) was 0.4%. For the same compound, the Eos (3 h) was 1.2%, the Fbg (3 h) was 222.4 mg/dL and the Hb (3 h) was 13.9 g/dL. The Ht (3 h) was 39.7%, the Lym (3 h) was 69.8% and the MCH (3 h) was 22.1 pg. For the same compound, the MCHC (3 h) was 34.9%, the MCV (3 h) was 63.3 fL and the Mono (3 h) was 2.8%. It also gave a Neu (3 h) of 25.4%, a PT (3 h) of 12 s and a Plat (3 h) of 131.6 x10_4/uL. The RBC (3 h) was 626.2 x10_4/ul, the Ret (3 h) was 7.1% and the WBC (3 h) was 74.2 x10_2/uL. The KIDNEY_L (3 h) was 1 g, the KIDNEY_R (3 h) was 0.9 g and the KIDNEY_TOTAL (3 h) was 1.9 g. The LIVER (3 h) was 10.3 g, the A/G (3 h) was 1.7 and the ALP (3 h) was 922.4 IU/L. It also gave an ALT (3 h) of 39 IU/L, an AST (3 h) of 78 IU/L and a BUN (3 h) of 12.8 mg/dL. For the same compound, the CRE (3 h) was 0.4 mg/dL, the Ca (3 h) was 10.8 mg/dL and the Cl (3 h) was 103.8 meq/L. For the same compound, the DBIL (3 h) was 0.07 mg/dL, the GLC (3 h) was 201.6 mg/dL and the IP (3 h) was 10.2 mg/dL. For the same compound, the K (3 h) was 3.9 meq/L, the LDH (3 h) was 195.8 IU/L and the Na (3 h) was 141.6 meq/L. It also gave a PL (3 h) of 133.2 mg/dL, an RALB (3 h) of 3.6 g/dL and a TBIL (3 h) of 0.1 mg/dL. The TC (3 h) was 74.6 mg/dL, the TG (3 h) was 62.6 mg/dL and the TP (3 h) was 5.7 g/dL. For the same compound, the gamma-GTP (3 h) was 1.4 IU/L, the TERMINAL_BW (6 h) was 219.1 g and the APTT (6 h) was 20 s. The Bas (6 h) was 0.6%, the Eos (6 h) was 0.8% and the Fbg (6 h) was 224.8 mg/dL. For the same compound, the Hb (6 h) was 14.4 g/dL, the Ht (6 h) was 41.9% and the Lym (6 h) was 77.2%. It also gave an MCH (6 h) of 21.9 pg, an MCHC (6 h) of 34.4% and an MCV (6 h) of 63.5 fL. The Mono (6 h) was 2.2%, the Neu (6 h) was 18.8% and the PT (6 h) was 12.8 s. The Plat (6 h) was 128 x10_4/uL, the RBC (6 h) was 661.8 x10_4/ul and the Ret (6 h) was 7.2%. It also gave a WBC (6 h) of 67.5 x10_2/uL, a KIDNEY_L (6 h) of 1 g and a KIDNEY_R (6 h) of 1 g. The KIDNEY_TOTAL (6 h) was 2 g, the LIVER (6 h) was 10 g and the A/G (6 h) was 1.6. For the same compound, the ALP (6 h) was 837.8 IU/L, the ALT (6 h) was 31.6 IU/L and the AST (6 h) was 67.6 IU/L. It also gave a BUN (6 h) of 12.2 mg/dL, a CRE (6 h) of 0.5 mg/dL and a Ca (6 h) of 10.8 mg/dL. For the same compound, the Cl (6 h) was 102.6 meq/L, the DBIL (6 h) was 0.068 mg/dL and the GLC (6 h) was 218.2 mg/dL. For the same compound, the IP (6 h) was 9.1 mg/dL, the K (6 h) was 3.8 meq/L and the LDH (6 h) was 191.4 IU/L. For the same compound, the Na (6 h) was 141 meq/L, the PL (6 h) was 144.4 mg/dL and the RALB (6 h) was 3.5 g/dL. For the same compound, the TBIL (6 h) was 0.1 mg/dL, the TC (6 h) was 85.2 mg/dL and the TG (6 h) was 32.6 mg/dL. The TP (6 h) was 5.6 g/dL, the gamma-GTP (6 h) was 1.2 IU/L and the TERMINAL_BW (9 h) was 215.7 g. For the same compound, the APTT (9 h) was 18.1 s, the Bas (9 h) was 0.2% and the Eos (9 h) was 0.6%. For the same compound, the Fbg (9 h) was 233.8 mg/dL, the Hb (9 h) was 13.9 g/dL and the Ht (9 h) was 40.7%. It also gave a Lym (9 h) of 74%, an MCH (9 h) of 21.4 pg and an MCHC (9 h) of 34.2%. The MCV (9 h) was 62.5 fL, the Mono (9 h) was 2.8% and the Neu (9 h) was 21.8%. The PT (9 h) was 13 s, the Plat (9 h) was 136.5 x10_4/uL and the RBC (9 h) was 652 x10_4/ul. For the same compound, the Ret (9 h) was 7.4%, the WBC (9 h) was 80.9 x10_2/uL and the KIDNEY_L (9 h) was 1 g. It also gave a KIDNEY_R (9 h) of 1 g, a KIDNEY_TOTAL (9 h) of 1.9 g and an LIVER (9 h) of 9.7 g. The A/G (9 h) was 1.6, the ALP (9 h) was 756.6 IU/L and the ALT (9 h) was 31.4 IU/L. It also gave an AST (9 h) of 68 IU/L, a BUN (9 h) of 10.4 mg/dL and a CRE (9 h) of 0.4 mg/dL. The Ca (9 h) was 10.5 mg/dL, the Cl (9 h) was 103.4 meq/L and the DBIL (9 h) was 0.06 mg/dL. The GLC (9 h) was 206.4 mg/dL, the IP (9 h) was 8.9 mg/dL and the K (9 h) was 4 meq/L. It also gave an LDH (9 h) of 184.6 IU/L, a Na (9 h) of 140.2 meq/L and a PL (9 h) of 125 mg/dL. The RALB (9 h) was 3.5 g/dL, the TBIL (9 h) was 0.1 mg/dL and the TC (9 h) was 72.2 mg/dL. It also gave a TG (9 h) of 32.2 mg/dL, a TP (9 h) of 5.7 g/dL and a gamma-GTP (9 h) of 1.2 IU/L. It also gave a TERMINAL_BW (24 h) of 220.9 g, an APTT (24 h) of 19.1 s and a Bas (24 h) of 0.6%. For the same compound, the Eos (24 h) was 1%, the Fbg (24 h) was 210.8 mg/dL and the Hb (24 h) was 14.5 g/dL. It also gave a Ht (24 h) of 41.9%, a Lym (24 h) of 75.2% and an MCH (24 h) of 22.2 pg. It also gave an MCHC (24 h) of 34.8%, an MCV (24 h) of 63.7 fL and a Mono (24 h) of 3.2%. The Neu (24 h) was 19.8%, the PT (24 h) was 14.4 s and the Plat (24 h) was 131.6 x10_4/uL. For the same compound, the RBC (24 h) was 657.8 x10_4/ul, the Ret (24 h) was 5.9% and the WBC (24 h) was 77.9 x10_2/uL. For the same compound, the KIDNEY_L (24 h) was 1 g, the KIDNEY_R (24 h) was 1 g and the KIDNEY_TOTAL (24 h) was 2 g. The LIVER (24 h) was 11 g, the A/G (24 h) was 1.7 and the ALP (24 h) was 865 IU/L. For the same compound, the ALT (24 h) was 35.4 IU/L, the AST (24 h) was 74 IU/L and the BUN (24 h) was 15.6 mg/dL. The CRE (24 h) was 0.4 mg/dL, the Ca (24 h) was 10.6 mg/dL and the Cl (24 h) was 105.2 meq/L. The DBIL (24 h) was 0.098 mg/dL, the GLC (24 h) was 196.6 mg/dL and the IP (24 h) was 9.1 mg/dL. The K (24 h) was 4.3 meq/L, the LDH (24 h) was 212.8 IU/L and the Na (24 h) was 140.6 meq/L. It also gave a PL (24 h) of 117 mg/dL, an RALB (24 h) of 3.3 g/dL and a TBIL (24 h) of 0.2 mg/dL. The TC (24 h) was 52 mg/dL, the TG (24 h) was 75.8 mg/dL and the TP (24 h) was 5.2 g/dL. It also gave a gamma-GTP (24 h) of 1.2 IU/L.

— ChEMBL document CHEMBL3885861, “Open TG-GATES”
